Experimental findings from patent US20110262365A1 (priority 2008, published 2011) are described below.

This experiment relates to skin of the subject. Put plainly: Intradermal skin test for hypersensitivity to female reproductive hormones, case reports. Format: in vivo, human. Conditions: for Skin test result, Case 2: person one; for Skin test result, Case 6 / Skin test result, Case 7 / Skin test result, Case 4 / Skin test result, Case 1 / Skin test result, Case 5: person; for Skin test result, Case 6: menopausal syndrome; for Skin test result, Case 6 / Skin test result, Case 7: severe hot flashes; for Skin test result, Case 7: menopause; for Skin test result, Case 4: recurrent habitual abortions and severe PMS; for Skin test result, Case 1: severe premenstrual headaches, insomnia, acne; for Skin test result, Case 5: premenopausal syndrome, severe hot flashes and night sweats. The method, then:
The skin test included the use of three fractions of estrogen (E1, E2 and E3) and progesterone (P), along with suitable controls. Each hormone solution was intradermally administered at a volume of 20-160 μl.
Skin test method using estriol, estrone, estradiol and/or progesterone and monitoring the immediate, late and delayed immuno-reaction to the injected hormones
1. The hormones (Table 1) diluted in solvents (Table 2) and controls (Table 3) in the above described dosages were administered intradermally into subjects.
2. Timing of intradermal administration and evaluation of the skin reaction was dependent on the tested subject.
(i) In case of fertile woman: Intradermal administration of the hormones/controls initiated at the luteal phase of menstrual cycle;
Tracking (evaluation of skin reaction) was after 20 minutes, after 48 hours and daily during the next 30 day (or a complete menstrual cycle).
(ii) Other Cases (non-fertile subjects): Intradermal administration of the hormones/controls initiated at any time;
Tracking (evaluation of skin reaction) was after 20 minutes, after 48 hours and daily during the next 7 day.
3. Measurement of wheal diameter—The wheal is formed on the skin in response to the intradermal administration of the hormone. Since the wheal responses are rarely regular or circular the wheal diameter is calculated using the following formula I.
wheal diameter=(D+d)/2 Formula I: […]
where D is the maximum diameter and d is perpendicular diameter.
4. Comparison with the controls was as follows:
(i) In case of a negative reaction to histamine (wheal diameter smaller than 5 mm), the result indicates Familial Dysautonomia disease (the subject is advised to seek other treatment);
(ii) In case of a positive reaction to saline (wheal diameter equals or larger than 5 mm), the test should be repeated;
(iv) In case of a similar or smaller reaction (wheal diameter) as compared to solvent reaction, there is no sensitivity to the tested hormone and desensitization is optional;
(v) Exception—In case the skin reaction (wheal diameter) is larger than 20 mm, the subject should not be treated and is referred to testing of cancer, systemic auto-immune diseases and other serous diseases.
Following is a description of several cases of subjects which were diagnosed and treated according to the method of some embodiments of the invention. The concentrations of hormones used in the description of the following cases 1-7 and in Table 9 below were as follow:
E1 (Estrone)—3 mM (millimole/Liter); 0.811 grams/liter;
E2 —(estradiol)—1 mM (millimole/Liter); 0.3565 grams/liter;
E3 (estriol)—3 mM (millimole/Liter); 0.86514 grams/liter;
P (progesterone)—1 mM (millimole/Liter); 0.3144 grams/liter;

The mark [1] stands for this setting: habitual abortions and severe PMS.

In the case of 17 beta Estradiol Valerate, the “Skin test result, Case 6” value is “Hypersensitivity (delayed type after 48 hours and 5 days)”; the “Skin test result, Case 7” value is “delayed-type (after 48 hours and 6 days) hypersensitivity reaction”; the “Skin test result, Case 4” value is reported as “delayed-type hypersensitivity reaction”. The “Skin test result, Case 2” value under setting [1] was “positive delayed-type hypersensitivity reaction”. Further, the “Skin test result, Case 3” value (person two, habitual abortions and severe PMS) is recorded as “delayed-type hypersensitivity reaction”. Moreover, the “Skin test result, Case 1” value (BMI=31) is given as “delayed-type hypersensitivity reaction”.

Take `C[C@]12CC[C@@H]3c4ccc(O)cc4CC[C@H]3[C@@H]1C[C@@H](O)[C@@H]2O` [estriol, Estriol]: the “Skin test result, Case 6” value is “Hypersensitivity (delayed type after 48 hours and 5 days)”; the “Skin test result, Case 5” value was “delayed-type hypersensitivity reaction (after 48 hours)”; the “Skin test result, Case 4” value was “delayed-type hypersensitivity reaction”. In addition, for the setting “BMI=31”, the “Skin test result, Case 1” value is listed as “delayed-type hypersensitivity reaction”.

As to `CC(=O)[C@H]1CC[C@H]2[C@@H]3CCC4=CC(=O)CC[C@]4(C)[C@H]3CC[C@]12C` [progesterone, Progesterone], the “Skin test result, Case 7” value was “delayed-type (after 48 hours and 6 days) hypersensitivity reaction”; the “Skin test result, Case 5” value is “delayed-type hypersensitivity reaction (after 48 hours)”; the “Skin test result, Case 4” value is “delayed-type hypersensitivity reaction”. Further, the “Skin test result, Case 2” value under setting [1] is listed as “positive delayed-type hypersensitivity reaction”. Besides, where the note is “BMI=31, listed as Progesterone”, the “Skin test result, Case 1” value was “delayed-type hypersensitivity reaction to estriol and estradiol, higher than to Progesterone”.
